Results as given in US20250051337A1 (priority 2021, published 2025).

What was measured:
STK3 = STK3 (Homo sapiens (Human), UniProt Q13188); assay: ADP-Glo kinase assay, STK3; assay type: biochemical; conditions: ADP-Glo, 50 μM ATP; read-out: STK3 IC50
Method: (§1) The STK3 kinase assay was performed in 5 μL reaction buffer containing 50 ng recombinant human STK3 protein (full length, SignalChem #S24-10G; Richmond, Canada), 250 μg/mL myelin basic protein (Sigma-Aldrich #M1891; St. Louis, MO, USA), and 50 μM ATP (Sigma-Aldrich #A7699). The STK4 kinase assay was performed in 5 μL reaction buffer containing 50 ng recombinant human STK4 protein (full length, SignalChem #S25-10G), 300 μg/mL Axltide (SignalChem #A16-58), and 50 μM ATP. […] Three experiments were performed, each in triplicate.

STK4 = STK4 (Homo sapiens (Human), UniProt Q13043); assay: ADP-Glo kinase assay, STK4; assay type: biochemical; conditions: ADP-Glo, 50 μM ATP; read-out: STK4 IC50
STK4, sequence (Q13043 whole entry): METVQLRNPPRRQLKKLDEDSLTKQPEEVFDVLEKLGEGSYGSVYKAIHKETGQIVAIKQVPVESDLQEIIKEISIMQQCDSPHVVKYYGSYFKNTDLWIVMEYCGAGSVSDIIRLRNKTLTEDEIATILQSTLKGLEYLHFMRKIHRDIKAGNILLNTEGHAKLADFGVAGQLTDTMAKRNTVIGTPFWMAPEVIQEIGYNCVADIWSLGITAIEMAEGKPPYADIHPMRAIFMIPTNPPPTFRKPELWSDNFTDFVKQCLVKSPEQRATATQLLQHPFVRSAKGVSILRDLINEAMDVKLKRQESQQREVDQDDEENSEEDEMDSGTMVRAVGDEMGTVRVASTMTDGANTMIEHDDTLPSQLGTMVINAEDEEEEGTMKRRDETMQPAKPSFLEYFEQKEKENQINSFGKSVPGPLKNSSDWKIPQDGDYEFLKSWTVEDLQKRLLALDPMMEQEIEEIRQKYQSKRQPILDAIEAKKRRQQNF
Method: as §1

STK3, sequence (Q13188 whole entry): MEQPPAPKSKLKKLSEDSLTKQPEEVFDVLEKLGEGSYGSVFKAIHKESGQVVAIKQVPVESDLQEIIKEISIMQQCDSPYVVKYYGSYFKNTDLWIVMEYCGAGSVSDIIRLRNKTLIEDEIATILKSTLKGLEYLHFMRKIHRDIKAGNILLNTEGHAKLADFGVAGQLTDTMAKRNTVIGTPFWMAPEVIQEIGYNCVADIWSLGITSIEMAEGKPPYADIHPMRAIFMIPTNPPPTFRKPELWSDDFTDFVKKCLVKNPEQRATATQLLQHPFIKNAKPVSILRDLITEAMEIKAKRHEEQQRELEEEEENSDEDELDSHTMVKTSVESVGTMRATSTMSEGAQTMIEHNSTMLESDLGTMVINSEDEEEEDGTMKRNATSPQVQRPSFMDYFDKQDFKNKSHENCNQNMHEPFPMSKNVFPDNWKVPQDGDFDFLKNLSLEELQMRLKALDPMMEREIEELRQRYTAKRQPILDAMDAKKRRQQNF

Structure (SMILES)	IC50 (STK3)	IC50 (STK4)
COCC(C)CN(C)c1ncnc2[nH]cc(-c3cccc(Cl)c3)c12 (centres unmarked) [Compound 122, 5-(3-chlorophenyl)-N-(3-methoxy-2-methylpropyl)-N-methyl-7H-pyrrolo[2,3-d]pyrimidin-4-amine]	1000 to 5000 nM	1000 to 5000 nM
FC(F)(F)CNc1ncnc2[nH]cc(-c3cccc(Cl)c3)c12 [Compound 55, 5-(3-chlorophenyl)-N-(2,2,2-trifluoroethyl)-7H-pyrrolo[2,3-d]pyrimidin-4-amine]	1000 to 5000 nM	< 1000 nM
CC(C)CNc1ncnc2[nH]cc(-c3cccc(Cl)c3)c12 [Compound 52, 5-(3-chlorophenyl)-N-isobutyl-7H-pyrrolo[2,3-d]pyrimidin-4-amine]	< 1000 nM	< 1000 nM
COc1ccc(CCNc2ncnc3[nH]cc(-c4cccc(Cl)c4)c23)cc1OC [Compound 72, 5-(3-chlorophenyl)-N-(3,4-dimethoxyphenethyl)-7H-pyrrolo[2,3-d]pyrimidin-4-amine]	> 5000 nM	1000 to 5000 nM
C=CC(=O)Cc1nc(N2CCOCC2)c2c(-c3cccc(Cl)c3)c[nH]c2n1 [Compound 97, 1-(5-(3-chlorophenyl)-4-morpholino-7H-pyrrolo[2,3-d]pyrimidin-2-yl)but-3-en-2-one]	> 5000 nM	> 5000 nM
CC(CNc1ncnc2[nH]cc(-c3cccc(Cl)c3)c12)C(N)=O (centres unmarked) [Compound 125, 3-((5-(3-chlorophenyl)-7H-pyrrolo[2,3-d]pyrimidin-4-yl)amino)-2-methylpropanamide]	< 1000 nM	< 1000 nM
Clc1cccc(-c2c[nH]c3ncnc(NCc4ccn[nH]4)c23)c1 [Compound 59, N-((1H-pyrazol-5-yl)methyl)-5-(3-chlorophenyl)-7H-pyrrolo[2,3-d]pyrimidin-4-amine]	1000 to 5000 nM	< 1000 nM
c1ccc(-c2c[nH]c3ncnc(N4CCOCC4)c23)cc1 [Compound 1, 4-(5-Phenyl-7H-pyrrolo[2,3-d]pyrimidin-4-yl)morpholine]	< 1000 nM	< 1000 nM
Clc1cccc(-c2c[nH]c3ncnc(N4CCCC4)c23)c1 [Compound 44, 5-(3-chlorophenyl)-4-(pyrrolidin-1-yl)-7H-pyrrolo[2,3-d]pyrimidine]	< 1000 nM	< 1000 nM
CN(C)CCNc1ncnc2[nH]cc(-c3cccc(Cl)c3)c12 [Compound 57, N1-(5-(3-chlorophenyl)-7H-pyrrolo[2,3-d]pyrimidin-4-yl)-N2,N2-dimethylethane-1,2-diamine]	> 5000 nM	> 5000 nM
CC(C)CCNc1ncnc2[nH]cc(-c3cccc(Cl)c3)c12 [Compound 64, 5-(3-chlorophenyl)-N-isopentyl-7H-pyrrolo[2,3-d]pyrimidin-4-amine]	1000 to 5000 nM	1000 to 5000 nM
CCCNc1ncnc2[nH]cc(-c3cccc(Cl)c3)c12 [Compound 50, 5-(3-chlorophenyl)-N-propyl-7H-pyrrolo[2,3-d]pyrimidin-4-amine]	< 1000 nM	< 1000 nM
OCCNc1ncnc2[nH]cc(-c3cccc(Cl)c3)c12 [Compound 54, 2-((5-(3-chlorophenyl)-7H-pyrrolo[2,3-d]pyrimidin-4-yl)amino)ethan-1-ol]	< 1000 nM	< 1000 nM
Clc1cccc(-c2c[nH]c3ncnc(N4CCC4)c23)c1 [Compound 46, 4-(azetidin-1-yl)-5-(3-chlorophenyl)-7H-pyrrolo[2,3-d]pyrimidine]	1000 to 5000 nM	1000 to 5000 nM
CCN(CC)c1ncnc2[nH]cc(-c3cccc(Cl)c3)c12 [Compound 51, 5-(3-chlorophenyl)-N,N-diethyl-7H-pyrrolo[2,3-d]pyrimidin-4-amine]	< 1000 nM	< 1000 nM
COc1ccc(CNc2ncnc3[nH]cc(-c4cccc(Cl)c4)c23)c(OC)c1 [Compound 73, 5-(3-chlorophenyl)-N-(2,4-dimethoxybenzyl)-7H-pyrrolo[2,3-d]pyrimidin-4-amine]	> 5000 nM	1000 to 5000 nM
c1cc(-c2c[nH]c3ncnc(N4CCOCC4)c23)ccn1 [Compound 35, 4-(5-(pyridin-4-yl)-7H-pyrrolo[2,3-d]pyrimidin-4-yl)morpholine]	> 5000 nM	> 5000 nM
Clc1cccc(-c2c[nH]c3ncnc(N4CCC(N5CCCCC5)CC4)c23)c1 [Compound 81, 4-([1,4′-bipiperidin]-1′-yl)-5-(3-chlorophenyl)-7H-pyrrolo[2,3-d]pyrimidine]	> 5000 nM	1000 to 5000 nM
CCN1CCN(c2ncnc3[nH]cc(-c4cccc(Cl)c4)c23)CC1 [Compound 48, 5-(3-chlorophenyl)-4-(4-ethylpiperazin-1-yl)-7H-pyrrolo[2,3-d]pyrimidine]	> 5000 nM	> 5000 nM
CC(=O)NCC(C)CNc1ncnc2[nH]cc(-c3ccccc3)c12 (centres unmarked) [Compound 130, N-(2-methyl-3-((5-phenyl-7H-pyrrolo[2,3-d]pyrimidin-4-yl)amino)propyl)acetamide]	1000 to 5000 nM	1000 to 5000 nM
COc1ncc(-c2c[nH]c3ncnc(N4CCOCC4)c23)cn1 [Compound 38, 4-(5-(2-methoxypyrimidin-5-yl)-7H-pyrrolo[2,3-d]pyrimidin-4-yl)morpholine]	> 5000 nM	> 5000 nM
Clc1cccc(-c2c[nH]c3ncnc(NCCc4ccccn4)c23)c1 [Compound 63, 5-(3-chlorophenyl)-N-(2-(pyridin-2-yl)ethyl)-7H-pyrrolo[2,3-d]pyrimidin-4-amine]	1000 to 5000 nM	< 1000 nM
Cn1cc(-c2cccc(Cl)c2)c2c(N3CCOCC3)ncnc21 [Compound 95, 4-(5-(3-chlorophenyl)-7-methyl-7H-pyrrolo[2,3-d]pyrimidin-4-yl)morpholine]	> 5000 nM	> 5000 nM
CC(=O)NC1(C)CCN(c2ncnc3[nH]cc(-c4cccc(Cl)c4)c23)CC1 [Compound 124, N-(1-(5-(3-chlorophenyl)-7H-pyrrolo[2,3-d]pyrimidin-4-yl)-4-methylpiperidin-4-yl)acetamide]	1000 to 5000 nM	1000 to 5000 nM
COc1ccc(-c2c[nH]c3ncnc(N4CCOCC4)c23)cc1 [Compound 26, 4-(5-(4-methoxyphenyl)-7H-pyrrolo[2,3-d]pyrimidin-4-yl)morpholine]	1000 to 5000 nM	< 1000 nM
